Measured values: US11426405B2, “Inhibition of JAK-STAT signaling inhibits formation of neutrophil extracellular traps (NETs)” (The Brigham and Women's Hospital, Inc., priority 2017, dated 2022)
Several values for one entry are separate records, joined by “and”; a condition that tells them apart may be missing. Identical values can stand only once.

B1: DNase: deoxyribonuclease (DNase; Pulmozyme, Genentech), disrupts NET structures (protein, UniProt P24855 23-282, looked up)
Deoxyribonuclease-1: LKIAAFNIQTFGETKMSNATLVSYIVQILSRYDIALVQEVRDSHLTAVGKLLDNLNQDAPDTYHYVVSEPLGRNSYKERYLFVYRPDQVSAVDSYYYDDGCEPCGNDTFNREPAIVRFFSRFTEVREFAIVPLHAAPGDAVAEIDALYDVYLDVQEKWGLEDVMLMGDFNAGCSYVRPSQWSSIRLWTSPTFQWLIPDSADTTATPTHCAYDRIVVAGMLLRGAVVPDSALPFNFQAAYGLSDQLAQAISDHYPVEVMLK

Tests used:
[1] = system: neutrophils from patients with MPNs; test: NET formation in neutrophils from MPN patients receiving a JAK inhibitor; type: cell-based, human; conditions: individual JAK inhibitor-treated MPN patients; 4 μM ionomycin stimulation; some patients also on ASA or Hydrea
Description: Whole blood was collected into ethylenediaminetetraacetic acid (EDTA)-coated tubes. Patients and controls were excluded if they had conditions that are known or suspected to affect NET formation such as active infection, active cancer (37), history of an autoimmune disease (38), treatment with immunosuppressive or anti-inflammatory drugs or history of diabetes (29). In addition, patients with recent history of infection, trauma or surgery (3 months before blood draw) were excluded. Therapy with acetylsalicylic acid (aspirin), hydroxyurea or anagrelide was allowed. […]
Neutrophil isolation and NET formation were carried out as previously described (39). […] Purity of cells was >95% as determined by Wright-Giemsa staining (FIG. 5B). For the screening NET assay, NET-bound neutrophil elastase was quantified using an available commercial kit according to manufacturer's instructions (Cayman chemical). […]
Fixed cells were processed as detailed above. Immunostaining, fluorescence microscopy and NET quantification procedures were similar for human and mouse specimens. […]
Images were acquired on an Axiovert 200M wide-field fluorescence microscope (Zeiss) coupled to an AxioCam MR3 monochromatic CCD camera (Zeiss) using a Zeiss Plan-Neofluar 20×/0.4 Con Ph2 objective lens with the Zeiss AxioVision software (version 4.6.3.0). […]

[2] = system: Jak2^WT and Jak2^V617F mice; test: Venous stenosis model: partial ligation of the inferior vena cava; type: in vivo, mouse; conditions: for Thrombus formation rate (clots/mice): DNase 50 μg i.p. and 10 μg i.v. after surgery
Description: Sections were allowed to come to room temperature, before rinsing in PBS with 0.1% Tween 20 (PBST). Sections were blocked for 1 hour at room temperature with 10% FBS in PBST in a humidified chamber. Sections were incubated in the same chamber overnight at 4° C. with the primary antibodies described above against Ly6G and H3^cit in 10% FBS in PBST. Slides were rinsed in PBST before incubating with the secondary antibody under the same conditions as used for the primary antibody (goat anti-rat Ig (IgG) (Alexa555, 1.5 μg/mL) or donkey anti-rabbit IgG (Alexa647, 1.5 μg/mL). After a further wash in PBST sections were stained with DAPI and mounted as described above. Sections were visualized using Axiolmager D1 (Carl Zeiss Microscopy) and images taken using Axiocam MRc Camera (Carl Zeiss Microscopy). Zen software 2.3 (version 13) was used to analyze images. For the final images used in the figures, Alexa647 was represented using green.
After bone marrow harvest, c-Kit positive marrow cells were obtained from VavCre/Jak2^V617F KI mice using CD117 Microbeads according to manufacturer's instructions (Miltenyi Bitotec).
DNase 1 (Pulmozyme, Genentech) was diluted in sterile saline and injected immediately after surgery (50 μg intraperitoneally and 10 μg intravenously via tail vein). […] Mice were assessed for thrombosis at 4 hours.

Molecule | % NET formation [1] | Thrombosis rate at 2 hours post-IVC ligation ([2]; Jak2^V617F mice, ruxolitinib 90 mg/kg twice a day for 72 hours, vehicle 45%) | Thrombosis rate at 4 hours post-IVC ligation ([2]; Jak2^V617F mice, ruxolitinib 90 mg/kg twice a day for 72 hours, vehicle 71%) | Thrombus formation rate (clots/mice) ([2]; Jak2^V617F mice, vehicle 5/7, p=0.007) | Thrombus formation rate (clots/mice) ([2]; Jak2^WT mice, vehicle 5/8, p=0.06)
C[C@H](Nc1cc(-c2cnn(C)c2)cc(Nc2cnccn2)n1)c1ccc(F)cc1 [NS-018] | 6.9% | – | – | – | –
N#CC[C@H](C1CCCC1)n1cc(-c2ncnc3[nH]ccc23)cn1 [Ruxolitinib] | 1.5% and 5.9% and 5.4% and 5.5% | 0% | 21% | – | –
B1 | – | – | – | 0/8 | 1/7
